The record followed here is patent US5659023A, “Nucleotide analogues” (Gilead Sciences, Inc., priority 1995, dated 1997).

The subject of one data set is human CMV. The experiment in a line: standard plaque inhibition assay, inhibitory effect against human CMV. The class given is cell-based. The conditions noted are these: Human betaherpesvirus 5. As for the experimental part: (§1) Compounds made in the foregoing examples were assayed for inhibitory effect against human CMV using the standard plaque inhibition assay (Lurain, "J. Vir." 66:7146-7152 (1992)). The cells used for the toxicity assay were normal human dermal fibroblasts.

Data set [1] in a line: toxicity assay in normal human dermal fibroblasts. The class given is cell-based. As for the experimental part:
as §1

The mark [2] stands for this setting: human CMV, plaque inhibition assay (Table 8), read-out: IC50.

Where two headings read alike, the source gives them in different places.

In general, IC50 refers to the point on the concentration scale where inhibition reaches its midpoint. For orientation: CC50 means the concentration that lowers cell viability or growth by half. For `C[C@@H]1O[C@H](P(=O)(O)O)C=C[C@@H]1n1ccc(N)nc1=O` [(64), 4-(cytosin-1-yl)-2,3,6-trideoxy-β-L-threo-hex-2-enopyranosylphosphonic acid], in the data set with human CMV (setting [2]), the IC50 worked out at 200 µM. The CC50 in data set [1] is greater than 1000 µM.

Turning to `Nc1ccn([C@@H]2CC=C(P(=O)(O)O)O[C@@H]2CO)c(=O)n1` [(28'), 4-(cytosin-1-yl)-2,3-dideoxy-D-threo-hex-1-enopyranosyl phosphonic acid], in the data set on human CMV (setting [2]), the IC50 is 40 µM. Moreover, the CC50 in data set [1] is greater than 1000 µM.

Regarding `Nc1ccn(C[C@@H](CO)OCP(=O)(O)O)c(=O)n1` [HPMPC, reference compound], the IC50 in the data set with human CMV (reference HPMPC, read-out: IC50) is 0.5 µM. The CC50 in data set [1] (reference HPMPC, read-out: CC50) was determined as 200 µM.

Take `C[C@@H]1OC(P(=O)(O)O)=CC[C@@H]1n1ccc(N)nc1=O` [(65), 4-(cytosin-1-yl)-2,3,6-trideoxy-L-threo-hex-1-enopyranosylphosphonic acid]: in the data set on human CMV (setting [2]), the concentration for half-maximal inhibition (IC50) was 300 µM. The same compound came in with a CC50 in data set [1] greater than 1000 µM.

As to `Nc1ccn([C@@H]2CC[C@H](P(=O)(O)O)O[C@@H]2CO)c(=O)n1` [(32'), 4-(cytosin-1-yl)-β-D-threo-hexopyranosylphosphonic acid], the IC50 in the data set with human CMV (setting [2]) amounted to 80 µM. Also, the cytotoxic concentration (CC50) in data set [1] is greater than 1000 µM.

`Nc1ccn([C@@H]2C=C[C@H](P(=O)(O)O)O[C@@H]2CO)c(=O)n1` [(30), 4-(cytosin-1-yl)-2,3-dideoxy-β-D-threo-hex-2-enopyranosylphosphonic acid] gave an IC50 in the data set on human CMV of 10 µM. In addition, the CC50 in data set [1] was greater than 1000 µM.
